Values quoted from earlier work as cited in publication PMC10712729, “A Phase I Trial of the Dual MET Kinase/OCT-2 Inhibitor OMO-1 in Metastatic Solid Malignancies Including MET Exon 14 Mutated Lung Cancer” (The Oncologist, 2023).

Experiments:
[1] = in vivo; cited from earlier work
[2] = parameters: method as in PMID 32469185, PMID 32877583; details: cited from earlier work
[3] = tested on: METex14 mutated NSCLC; parameters: method as in PMID 32469185, PMID 32877583; details: METex14 mutated NSCLC ref 9, 10; cited from earlier work

| Structure (SMILES) | renal toxicity [1] | diarrhea, all grades [2] [%] | nausea, all grades [2] [%] | vomiting, all grades [2] [%] | median response duration [3] [months] | object response rates [3] [%] |
| --- | --- | --- | --- | --- | --- | --- |
| Cn1cc(-c2ccc3nnc(C(F)(F)c4ccc5ncccc5c4)n3n2)cn1 [JNJ-38877605] | renal toxic properties |  |  |  |  |  |
| CNC(=O)c1ccc(-c2cnc3ncc(Cc4ccc5ncccc5c4)n3n2)cc1F [capmatinib] |  | 17 | 46 | 26 | 12.6 | 68 |
| CN1CCC(COc2cnc(-c3cccc(Cn4nc(-c5cccc(C#N)c5)ccc4=O)c3)nc2)CC1 [tepotinib] |  | 22 | 26 | 6 | 10.8 | 43 |
